Experimental data reported in patent publication US20080305186A1, “Method and Composition for the Treatment of Cardiac Hypertrophy” (BOARD OF REGENTS, THE UNIVERSITY OF TEXAS SYSTEM, priority 2007, published 2008).

Tested on: cardiac gene expression
Assay: Microarray analysis of cardiac gene expression (GeneChip Mouse Genome 430 2.0)
Format: in vivo, mice
Conditions: for FC Transglutaminase 2, C polypeptide (Tgm2): CH vs normal FC 2.0
Procedure: Microarray Sample Preparation and Analysis. Animal hearts were rapidly removed, and the atria and right ventricles were cut and immediately plunged into TRIzol Reagent (Life Technologies). Total RNA was isolated following the manufacturer's instructions, purified by phenol-chloroform extraction and then ethanol precipitation, and 20 μg further processed for microarray analysis. Briefly, cDNA synthesis, in vitro transcription, and labeling and fragmentation to produce the oligonucleotide probes were performed as instructed by the GeneChip manufacturer (Affymetrix). The probes were first hybridized to a test array (Affymetrix) and then to the GeneChip Mouse Genome 430 2.0 Array, using the GeneChip Hybridization Oven 640. The chips were washed in a GeneChip Fluidics Station 450 (Affymetrix), and the results were visualized with a GeneChip G7 scanner (Affymetrix). RMA normalization, pairwise comparisons, Student's t test and Benjamini and Hochberg correction were subsequently performed using GeneSifter (VizX Labs, Seattle, Wash.) and Spotfire DecisionSite 8.3 (Spotfire, Inc., Somerville, Mass.).
Effects on Gene Expression Profile. […] One mouse heart was used for each array, and was performed in triplicate, generating a total of 12 arrays. GeneSifter was used to perform RMA normalization, pairwise comparisons of averaged signal intensity values, and Student's t-test with Benjamini and Hochberg correction, and Spotfire was used to perform pairwise comparisons. […] Additionally, genes that were altered between any two N or cardiac hypertrophy samples were removed, as these alterations most likely represented normal variations between mice.

C[C@H]1c2cccc(O)c2C(=O)C2=C(O)[C@]3(O)C(=O)C(C(N)=O)=C(O)[C@@H](N(C)C)[C@@H]3[C@@H](O)[C@@H]21 [doxycycline]
FC IBR domain containing 2 (Ibrdc2) (GenBank AV274826, vs mice given only isoproterenol): −2.1 | FC Xanthine dehydrogenase (Xdh) (GenBank AV286265, heart, drug + isoproterenol vs isoproterenol-only mice, CH vs normal FC 3.9): −3.0 fold | FC UDP-N-acetyl-alpha-D-galactosamine:polypeptide N-acetylgalactosaminyltransferase-like 2 (Galntl2) (GenBank AV290688, heart, drug + isoproterenol vs isoproterenol-only mice, CH vs normal FC 3.3): −2.8 fold | FC Ras association (RalGDS/AF-6) domain family 4 (Neuropeptide signaling) (GenBank AV291679, vs mice given only isoproterenol): −2.2 | FC Syntaxin 3 (Stx3) (GenBank AV296217, vs mice given only isoproterenol): −1.6 | FC EST (GenBank AV318727, vs mice given only isoproterenol): 2.6 | FC F-box-WD40 repeat protein 6 (Fbxw6) (GenBank AV338062, vs mice given only isoproterenol): 1.9 | FC EST (GenBank AW123929, vs mice given only isoproterenol): −1.8 | FC EST (GenBank AW208574, vs mice given only isoproterenol): −1.9 | FC Myristoylated alanine rich protein kinase C substrate (Marcks) (GenBank AW546141, vs mice given only isoproterenol): 1.7 | FC Transmembrane protein 23 (Tmem23) (GenBank AW985925, heart, drug + isoproterenol vs isoproterenol-only mice, CH vs normal FC 2.8): −2.1 fold | FC Nuclear factor, interleukin 3, regulated (Nfil3) (GenBank AY061760, vs mice given only isoproterenol): −2.5 | FC RasGEF domain family, member 1B (Rasgef1b) (GenBank BB003229, vs mice given only isoproterenol): −2.4 | FC Transglutaminase 2, C polypeptide (Tgm2) (GenBank BB041811, heart, drug + isoproterenol vs isoproterenol-only mice): −1.7 fold | FC EST (GenBank BB069531, vs mice given only isoproterenol): 2.1 | FC G protein-coupled receptor 116 (Gprl16) (GenBank BB083808, vs mice given only isoproterenol): −2.0 | FC EST (GenBank BB096843, vs mice given only isoproterenol): −1.8 | FC RAN binding protein 9 (Ranbp9) (GenBank BB106402, vs mice given only isoproterenol): −2.6 | FC EST (GenBank BB109391, vs mice given only isoproterenol): −1.8 | FC Tumorsuppressor St7-like (St7l) (GenBank BB122084, heart, drug + isoproterenol vs isoproterenol-only mice, CH vs normal FC 2.3): −2.1 fold | FC Kyphoscoliosis peptidase (Ky) (GenBank BB126077, vs mice given only isoproterenol): 1.8 | FC EST (GenBank BB127176, vs mice given only isoproterenol): −1.7 | FC Endothelial differentiation sphingolipid G-protein-coupled receptor 1 (Edg1) (GenBank BB133079, vs mice given only isoproterenol): −2.4 | FC Interferon induced transmembrane protein 6 (Ifitm6) (GenBank BB193024, vs mice given only isoproterenol): −3.3 | FC RAS, dexamethasone-induced 1 (Rasd1) (GenBank BB217136, vs mice given only isoproterenol): −3.3 | FC EST (GenBank BB219003, vs mice given only isoproterenol): −2.1 | FC Inner membrane protein, mitochondrial (Immt) (GenBank BB222675, vs mice given only isoproterenol): 4.9 | FC EST (GenBank BB236747, vs mice given only isoproterenol): −1.7 | FC Procollagen-proline, 2-oxoglutarate 4-dioxygenase (proline 4-hydroxylase), alpha 1 polypeptide (P4ha1) (GenBank BB253720, vs mice given only isoproterenol): 1.9 | FC MAD homolog 1 (Smad1) (GenBank BB257769, vs mice given only isoproterenol): −1.9 | FC EST (GenBank BB312992, vs mice given only isoproterenol): −2.1 | FC Zi finger and BTB domain containing 16 (Zbtb16) (GenBank BB326368, heart, drug + isoproterenol vs isoproterenol-only mice, CH vs normal FC 5.1): −1.8 fold | FC Kelch-like 24 (Khl24) (GenBank BB328076, vs mice given only isoproterenol): −2.2 | FC Tissue inhibitor of metalloproteinase 4 (Timp4) (GenBank BB328405, heart, drug + isoproterenol vs isoproterenol-only mice, CH vs normal FC 5.6): −2.8 fold | FC Leucine-rich repeat-containing 8c (Lrrc8c) (GenBank BB333759, vs mice given only isoproterenol): −1.7 | FC EST (GenBank BB335101, vs mice given only isoproterenol): 2.2 | FC Insulin receptor substrate 1 (Irs1) (GenBank BB345784, vs mice given only isoproterenol): −1.7 | FC Tribbles homolog 2 (Trib2) (GenBank BB354684, heart, drug + isoproterenol vs isoproterenol-only mice, CH vs normal FC −1.9): 1.6 fold | FC EST (GenBank BB374879, vs mice given only isoproterenol): 2.7 | FC Transcription factor Dp 2 (Tfdp2) (GenBank BB405795, heart, drug + isoproterenol vs isoproterenol-only mice, CH vs normal FC 2.8): −2.2 fold | FC Inositol 1,4,5-trisphosphate 3-kinase B (Itpkb) (GenBank BB434111, vs mice given only isoproterenol): 2.5 | FC EST (GenBank BB476794, vs mice given only isoproterenol): 1.9 | FC Histone 1, H1e (Hist1h2be) (GenBank BB490701, vs mice given only isoproterenol): −1.7 | FC RNA, U22 small nucleolar (GenBank BB493265, vs mice given only isoproterenol): −1.8 | FC F-box and leucine-rich repeat protein 13 (Fbxl13) (GenBank BB503935, vs mice given only isoproterenol): 1.9 | FC OTU domain, ubiquitin aldehyde binding 1 (Otub1) (GenBank BB534069, vs mice given only isoproterenol): 2.0 | FC EST (GenBank BB535847, vs mice given only isoproterenol): −2.0 | FC Transglutaminase 2, C polypeptide (Tgm2) (GenBank BB550124, heart, drug + isoproterenol vs isoproterenol-only mice): −1.7 fold | FC Von Willebrand factor homolog (Vwf) (GenBank BB667216, heart, drug + isoproterenol vs isoproterenol-only mice, CH vs normal FC 2.3): −1.7 fold | FC Dehydrogenase E1 and transketolase domain containing 1 (Dhtkd1) (GenBank BB667395, vs mice given only isoproterenol): −2.1 | FC Fibroblast growth factor receptor 3 (Fgfr3) (GenBank BB732903, vs mice given only isoproterenol): −2.1 | FC Period homolog 3 (Per3) (GenBank BB757992, vs mice given only isoproterenol): 2.3 | FC Serine palmitoyltransferase, long chain base subunit 2 (Sptlc2) (GenBank BB794710, vs mice given only isoproterenol): −2.1 | FC Nucleoplasmin 3 (Npm3) (GenBank BB811478, vs mice given only isoproterenol): 2.1 | FC Heterogeneous nuclear ribonucleoprotein R (Hnrpr) (GenBank BB822465, vs mice given only isoproterenol): 1.8 | FC Integrator complex subunit 3 (Ints3) (GenBank BC003209, vs mice given only isoproterenol): −2.2 | FC Solute carrier family 39 (iron-regulated transporter), member 1 (Slc40a1) (GenBank BC003438, vs mice given only isoproterenol): −2.1 | FC Transforming, acidic coiled-coil containing protein 2 (Tacc2) (GenBank BC004057, heart, drug + isoproterenol vs isoproterenol-only mice, CH vs normal FC 2.8): −2.1 fold | FC Lutheran blood group (Auberger b antigen iluded) (Bcam) (GenBank BC004826, vs mice given only isoproterenol): 1.6 | FC Tubulin, beta 2c (Tubb2c) (GenBank BC005547, heart, drug + isoproterenol vs isoproterenol-only mice, CH vs normal FC −1.7): 2.5 fold
